Laboratory results as given in patent publication US7183440B2, “Pharmaceutically useful compounds” (priority 2005, dated 2007).
Like-named read-outs stand apart in the source and are kept apart here.

How the values were obtained:
[1] = tested on: HSF; assay: HSF activation, luciferase reporter controlled by the human hsp70 promoter in HeLa cell clone 13B; type: cell-based; conditions: read-out: HSF AC200/μM
Procedure: (§1) HeLa cell clone 13B, stably transfected with a luciferase reporter plasmid controlled by the human hsp70 promoter, and HeLa κB-transformed cells, stably transfected with a luciferase reporter plasmid controlled by a synthetic NF-κB-STM construct, were maintained in DMEM medium supplemented with 10% FBS, L-glutamine (2 mM) and G418 (250 μg/ml) at 37° C. in a 5% CO2 humidified atmosphere.
(§2) Cells were seeded at a density of 4×10^4 cells/well in 96-well plates. After 18–20 h, the medium was removed and cells were treated for 8 h with the test compounds (100 μl) at the appropriate dilutions in serum-free medium. For the NF-κB-dependent reporter gene assay, cells were stimulated with TPA (25 ng/ml) 2 h after exposure to the compounds.
(§3) After incubation, the medium was removed and cells were lysed in 10 μl of lysis buffer. The luciferase activity was determined by adding 100 μl of substrate and measuring the release of light using a Victor 1420 microplate reader (Wallac, Finland).
(§4) The AC200/μM for HSF is the concentration at which the tested compound doubled the HSF activity in this assay. The IC50/μM for NF-κB is the concentration at which the tested compound halved the NF-κB activity in this assay. […] The LC50/μM is the concentration at which the tested compound killed half the cells in each assay. […] (n.d. means not done)

[2] = tested on: NF-κB; assay: NF-κB-dependent luciferase reporter gene assay in HeLa κB-transformed cells stimulated with TPA; type: cell-based, human
Procedure: as §1, §2, §3
The fragment Kpn I-BamH I from the pGL3 basic vector containing the luciferase gene (PROMEGA) was inserted in the pcDNA3 vector (INVITROGEN) digested with Bgl II-KpnI. (This digestion removes the CMV-promoter from pcDNA3.) The resulting new vector was digested with Kpn I-Hind III and a promoter containing a ‘5×NF-κB binding sites-TATA box’ sequence was inserted upstream of the luciferase gene. This vector has been named STM.
To obtain stable HeLa cell lines expressing the luciferase gene under the control of NF-κB, HeLa cells were transfected (using lipofectamine plus GIBCO) with the STM-Pvu I linearized vector, and selected for 20 days with G418 (800 μg/ml). After selection, the resistant HeLa cell pool was controlled (in quadruplicate samples) for luciferase activity after stimulation with TNFα, IL-1 and TPA.
as §4

[3] = tested on: HeLa cells; assay: in vitro; type: cell-based; conditions: human, 8 h
Procedure: HeLa cells were plated in 96-well microtiter plates in 100 μl culture medium (4×10^4/well). After 20 hours, the cells were exposed to the test compounds at different dilutions and incubated for the next 8 h at 37° C. in a 5% CO2 humidified atmosphere. After 6 h incubation, the Alamar Blue was added in an amount equal to 10% of the culture volume (10 μl). Two hours after the addition of the Alamar Blue, the fluorescence was measured using a Victor 1420 microplate reader.

[4] = tested on: Sendai virus; assay: Replication of Sendai virus in 37RC cells, virus yield by haemagglutinin titration; type: cell-based; conditions: Respirovirus muris, read-out: ID50/μM
Procedure: Monkey kidney 37RC cells were grown at 37° C. in RPMI medium supplemented with 5% foetal bovine serum (FBS), L-glutarine (2 mM) and antibiotics. Sendai virus was grown in the allantoic cavity of 10-day-old embryonated eggs. Viral titre was expressed in haemagglutinating units (HAU) per ml; haemagglutinin titration was done according to standard procedures, as described in C. Amici et al. (J. Virol. 68: 6890–6899, 1994). […] Confluent 37RC monolayers were infected with Sendai Virus (5 HAU/ml) for 1 h at 37° C. After 1 hour incubation, viral inoculum was removed and cells were treated with the test compounds at different concentrations. Virus yields were determined 24 h post infection by haemagglutinin titration. Mock-infected cells were treated identically and processed for cytotoxicity assay (Neutral Red assay) at the same time (see below). The results were expressed as HAU/ml (each point represents the mean of duplicate samples).

[5] = tested on: Monkey kidney 37RC cells; type: cell-based; conditions: concentration 100% toxic to uninfected 37RC cells, visually by microscopy
[6] = in vitro; type: cell-based; conditions: monkey, 50% lethal dose/concentration, neutral red assay, 37RC cells, read-out: LC50/μM
Procedure: Cell viability was determined using the Neutral Red assay.

[7] = in vitro
Procedure: (§5) This assay was carried out on HeLa cells using a technique analogous to that described below in Example 36(b) for Monkey Kidney 37RC cells.
as §4
(§6) Cell viability was determined using the Neutral Red assay. 37RC cells were seeded at density of 6×10^4 cells/well in 24-well plates and incubated for 24 h. Confluent 37RC monolayers were treated with the test compounds at different dilutions for 24 h at 37° C. After incubation, the medium was removed and the cells were incubated with RPMI medium containing 40 μg/ml Neutral Red dye (500 μl/well). After 2 h at 37° C., the monolayers were washed with phosphate-buffered saline (PBS) and then with a solution containing 1% CaCl2 and 0.5% formaldehyde. After washing, a solution containing 1% acetic acid/50% ethanol was added to the monolayers (250 μl/well). After 10 min at room temperature, the absorbance was determined with a microplate reader (Victor 1420, Wallac) at 540 nm.

[8] = tested on: HeLa cells; assay: in vitro; conditions: read-out: Toxicity Neutral Red LC50/μM; HeLa cells; concentration that killed half the cells
Procedure: as §5, §4, §6

[9] = Homo sapiens, concentration at which the compound doubled HSF activity, HeLa clone 13B, 8 h treatment
[10] = Homo sapiens, concentration that halved NF-κB activity, HeLa reporter cells, TPA 25 ng/ml, 8 h treatment
[11] = 50% inhibitory dose/concentration at 24 hours, Sendai virus in 37RC cells

Row | Compound | EC (2-fold HSF activity) [1, 9] [µM] | IC50 [2, 10] [µM] | CC50 [3] [µM] | IC50 [4, 11] [µM] | TD100/μM [5] [µM] | further results
1 | CC(C)/C=C1/C(=O)C=CC1NC(=O)OC(C)(C)C (stereo not shown) [CTC-121, (5-iso-Butylidene-4-oxocyclopent-2-enyl)-carbamic acid tert-butyl ester] | 2.8 | 4.7 | > 800 | 1 | 50 | CC50 at 24 h [6]: 4 µM
2 | CCCCC1C=CC(=O)/C1=C/CC(C)C (stereo not shown) [CTC-122] | 13 | 12 | 227 | 0.3 | 50 | –
3 | CC(C)(C)OC(=O)NC1C=CC(=O)C1 (stereo not shown) [CTC-132, (4-Oxocyclopent-2-enyl)-carbamic acid tert-butyl ester] | 51 | 52 | > 800 | 20 | 100 | –
4 | CCCCC1C=CC(=O)/C1=C/C(C)C (stereo not shown) [CTC-145] | 13 | 38 | 506 | 0.3 | 10 | –
5 | CC1C=CC(=O)/C1=C/c1ccccc1 (stereo not shown) [CTC-150, 4-Methyl-5-[1-phenyl-meth-(E)-ylidene]-cyclopent-2-enone] | 3 | 7 | 314 | 0.9 | 50 | –
6 | CC(C)/C=C1/C(=O)C=CC1C (stereo not shown) [CTC-154] | 13 | 14 | > 800 | – | – | –
7 | CCCCCC/C=C1/C(=O)C=CC1C (stereo not shown) [CTC-162] | < 6.2 | < 6.2 | 234 | – | – | –
8 | CCCCC/C=C1/C(=O)C=CC1C (stereo not shown) [CTC-164] | > 100 | 40 | > 800 | – | – | –
9 | O=C1C=CC(NC(=O)c2ccccc2)C1 (stereo not shown) [CTC-171, N-(4-Oxocyclopent-2-enyl)-benzamide] | 51 | 38 | > 800 | 20 | 100 | CC50 at 24 h [6]: 59 µM
10 | CCCCC1C=CC(=O)/C1=C/C1CC1 (stereo not shown) [CTC-177] | 8 | 14 | 239 | – | – | –
11 | CC(C)/C=C1/C(=O)C=C[C@H]1NC(=O)OC(C)(C)C [CTC-195, (2R)-(5-iso-Butylidene-4-oxocyclopent-2-enyl)-carbamic acid tert-butyl ester] | 5 | 6.6 | > 800 | 0.4 | 10 | CC50 at 24 h [6]: 4 µM
12 | CC(C)/C=C1/C(=O)C=C[C@@H]1NC(=O)OC(C)(C)C [CTC-199, (2S)-(5-iso-Butylidene-4-oxocyclopent-2-enyl)-carbamic acid tert-butyl ester] | 1.8 | 5 | > 800 | 1 | 50 | CC50 at 24 h [6]: 4 µM
13 | CC(C)(C)OC(=O)NC1C=CC(=O)/C1=C/c1ccc(Cl)cc1 (stereo not shown) [CTC-247, [(E)-5-(4-Chloro-benzylidene)-4-oxo-cyclopent-2-enyl]-carbamic acid tert-butyl ester] | 2 | 9 | > 800 | 0.6 | 10 | CC50 at 24 h ([7]; human): 72 µM; CC50 at 24 h [6]: 3.4 µM
14 | CC(C)(C)OC(=O)NC1C=CC(=O)/C1=C/c1ccccc1 (stereo not shown) [CTC-248, ((E)-5-Benzylidene-4-oxo-cyclopent-2-enyl)-carbamic acid tert-butyl ester] | 1.8 | 4 | > 800 | – | 10 | CC50 at 24 h ([7]; human): 33 µM; IC50 ([4]; 24 h): 0.6 µM; CC50 at 24 h [6]: 33 µM
15 | O=C1C=CC(Nc2ccccc2)C1 (stereo not shown) [CTC-252, 4-Phenylamino-cyclopent-2-one] | 27 | 57 | > 800 | – | – | –
16 | O=C1C=CC(NC(=O)Oc2ccccc2)C1 (stereo not shown) [CTC-260, (4-Oxocyclopent-2-enyl)-carbamic acid phenyl ester] | 10 | 9 | – | – | – | CC50 at 24 h [7]: 74 µM
17 | CCOC(=O)N(C(=O)OC(C)(C)C)C1C=CC(=O)C1 (stereo not shown) [CTC-267, N-tert-Butoxycarbonyl-(4-Oxocyclopent-2-enyl)-carbamic acid ethyl ester] | 18 | 35 | – | – | – | CC50 at 24 h ([7]; human): 233 µM
18 | CCOC(=O)NC1C=CC(=O)C1 (stereo not shown) [CTC-271, (4-Oxocyclopent-2-enyl)-carbamic acid ethyl ester] | 49 | 39 | – | – | – | CC50 at 24 h ([7]; human): 104 µM
19 | Cc1cc(C)c(/C=C2/C(=O)C=C[C@@H]2NC(=O)OC(C)(C)C)c(C)c1 [CTC-285, (1S)-[4-Oxo-(E)-5-(2,4,6-trimethyl-benzylidene)-cyclopent-2-enyl]-carbamic acid tert-butyl ester] | < 6.2 | 10 | – | – | – | CC50 at 24 h ([7]; human): 25 µM
20 | O=C1C=CC(NC(=O)CCl)C1 (stereo not shown) [CTC-304, 2-Chloro-N-(4-oxo-cyclopent-2-enyl)-acetamide] | < 6.2 | < 6.2 | – | – | – | CC50 at 24 h ([7]; human): 79 µM
21 | COC(=O)[C@H](CSC1CC(=O)/C(=C/C(C)C)C1C)NC(=O)OC(C)(C)C (stereo partly shown) [CTM-126] | 18 | 21 | > 800 | – | – | –
22 | CC(C)(C)OC(=O)N[C@@H](CS[C@@H]1CC(=O)/C(=C/c2ccccc2)[C@H]1NC(=O)OC(C)(C)C)C(=O)O [CTM-228, (2R)-3-((1R,2R)-(E)-3-Benzylidene-2-tert-butoxycarbonylamino-4-oxocyclopentylsulfanyl)-2-tert-butoxycarbonylaminopropionic acid] | < 6.2 | < 6.2 | – | – | – | CC50 at 24 h ([7]; human): 25 µM
23 | COC(=O)[C@H](CS[C@@H]1CC(=O)C[C@H]1NC(=O)Oc1ccccc1)NC(=O)OC(C)(C)C [CTM-236, (R)-2-tert-Butoxycarbonylamino-3-((1R,2R)-4-oxo-2-phenoxy-carbonyl-amino-cyclopentyl-sulfanyl)-propionic acid methyl ester] | – | – | – | – | – | EC (2-fold HSF activity) ([1]; concentration at which the compound doubled HSF activity, HeLa clone 13B, 8 h treatment): 13 µM; IC50 ([2]; concentration that halved NF-κB activity, HeLa reporter cells, TPA 25 ng/ml, 8 h treatment): 10 µM; CC50 [8]: 76 µM
24 | [(1R,2R)-2-(Naphthalen-2-ylsulfanyl)-4-oxocyclopentyl]-carbamic acid methyl ester; compound with benzene [CTM-238] | – | – | – | – | – | EC (2-fold HSF activity) [1]: 26 µM; IC50 [2]: 17 µM; CC50 [8]: 113 µM
